Among the data in patent publication US11149018B2, “Substituted N-arylethyl-2-aminoquinoline-4-carboxamides and use thereof” (Bayer Aktiengesellschaft, priority 2017, dated 2021) are IC50 values, retold here.

The test concerns the target FP receptor (Homo sapiens (Human), UniProt P43088). The test is described as follows: In vitro test of inhibition of human FP receptor activity (PGF2α-induced calcium flux in FP-expressing CHEM1 cells). As to conditions: PGF2α 2 nM, some mean values of multiple determinations. Type of test: cell-based. As for the experimental part:
B-1. In Vitro Test of Inhibition of Human FP Receptor Activity
For the characterization of test substances in respect of FP antagonism, PGF2α-induced calcium flux in FP-expressing CHEM1 cells (Millipore, HTS093C) was used.
10 μl of the prediluted substance solution are added to the Fluo-8-laden cells and incubated at 37° C., 5% CO2 for 10 minutes. The FP receptor is activated by adding 40 μl of 2 nM (final concentration) PGF2α in calcium-free Tyrode, 2 mM CaCl2, 0.002% SmartBlock, and the calcium flux is determined by measuring the fluorescence at ex. 470 nm/[…].
Table 1 below lists the IC50 values from this assay for individual working examples of the invention (some as mean values from multiple independent individual determinations): […]
For orientation: A change in cytosolic calcium serves as a functional read-out for many receptors and channels.

Sequence of FP receptor (P43088 whole entry): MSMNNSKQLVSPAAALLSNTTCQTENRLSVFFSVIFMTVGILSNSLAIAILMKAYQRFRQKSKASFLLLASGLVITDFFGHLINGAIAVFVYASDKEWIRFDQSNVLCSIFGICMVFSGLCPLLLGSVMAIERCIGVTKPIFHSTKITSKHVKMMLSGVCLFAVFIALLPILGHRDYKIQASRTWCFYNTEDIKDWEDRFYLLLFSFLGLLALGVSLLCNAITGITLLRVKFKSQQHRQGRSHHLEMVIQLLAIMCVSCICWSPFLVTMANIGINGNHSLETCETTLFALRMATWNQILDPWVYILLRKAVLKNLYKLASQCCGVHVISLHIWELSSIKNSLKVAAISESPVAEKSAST

The term IC50 denotes the midpoint of a concentration-inhibition curve. As for `Cc1c(N2CCCCC2)nc2ccc(Br)cc2c1C(=O)NCC(CCC(=O)O)c1c(Cl)ccc(F)c1F` (racemic) [Example 144, (+/−)-5-({[6-Bromo-3-methyl-2-(piperidin-1-yl)quinolin-4-yl]carbonyl}amino)-4-(6-chloro-2,3-difluorophenyl)pentanoic acid], the IC50 is 2.2 nM.
For `Cc1ccc(F)cc1C(CCC(=O)O)CNC(=O)c1c(C)c(N2CCCCC2)nc2ccc(Br)cc12` (racemic) [Example 147, (+/−)-5-({[6-Bromo-3-methyl-2-(piperidin-1-yl)quinolin-4-yl]carbonyl}amino)-4-(5-fluoro-2-methylphenyl)pentanoic acid] the value was 8 nM.
Consider `Cc1ccc(F)cc1C(CCC(=O)O)CNC(=O)c1c(C)c(N2CCCC(F)(F)C2)nc2ccc(Br)cc12` (racemic) [Example 150, (+/−)-5-({[6-Bromo-2-(3,3-difluoropiperidin-1-yl)-3-methylquinolin-4-yl]carbonyl}amino)-4-(5-fluoro-2-methylphenyl)pentanoic acid], for which the IC50 worked out at 22 nM.
Then `Cc1c(N2CCCC2)nc2ccc(Br)cc2c1C(=O)NCC(CCC(=O)O)c1c(F)ccc(F)c1Cl` (racemic) [Example 154, (+/−)-5-({[6-Bromo-3-methyl-2-(pyrrolidin-1-yl)quinolin-4-yl]carbonyl}amino)-4-(2-chloro-3,6-difluorophenyl)pentanoic acid], with 3.4 nM; and `Cc1c(N2CCCC(F)(F)C2)nc2ccc(Br)cc2c1C(=O)NCC(CCC(=O)O)c1c(F)ccc(F)c1Cl` (racemic) [Example 155, (+/−)-5-({[6-Bromo-2-(3,3-difluoropiperidin-1-yl)-3-methylquinolin-4-yl]carbonyl}amino)-4-(2-chloro-3,6-difluorophenyl)pentanoic acid], with 3 nM.
For `Cc1c(N2CCCCC2)nc2ccc(Br)cc2c1C(=O)NCC(CCC(=O)O)c1c(F)cccc1C(F)(F)F` (racemic) [Example 160, (+/−)-5-({[6-Bromo-3-methyl-2-(piperidin-1-yl)quinolin-4-yl]carbonyl}amino)-4-[2-fluoro-6-(trifluoromethyl)phenyl]pentanoic acid] the value was 5.3 nM; for `Cc1c(N2CCCC2)nc2ccc(Br)cc2c1C(=O)NCC(CCC(=O)O)c1c(F)cccc1C(F)(F)F` (racemic) [Example 163, (+/−)-5-({[6-Bromo-3-methyl-2-(pyrrolidin-1-yl)quinolin-4-yl]carbonyl}amino)-4-[2-fluoro-6-(trifluoromethyl)phenyl]pentanoic acid], 11 nM.
Then `Cc1c(N2CCCC(F)(F)C2)nc2ccc(Br)cc2c1C(=O)NCC(CCC(=O)O)c1c(F)cccc1C(F)(F)F` (racemic) [Example 166, (+/−)-5-({[6-Bromo-2-(3,3-difluoropiperidin-1-yl)-3-methylquinolin-4-yl]carbonyl}amino)-4-[2-fluoro-6-(trifluoromethyl)phenyl]pentanoic acid], with 9.5 nM; and `Cc1c(N2CCCCC2)nc2ccc(Br)cc2c1C(=O)NCC(CCC(=O)O)c1c(Cl)ccc(Cl)c1Cl` (racemic) [Example 171, (+/−)-5-({[6-Bromo-3-methyl-2-(piperidin-1-yl)quinolin-4-yl]carbonyl}amino)-4-(2,3,6-trichlorophenyl)pentanoic acid], with 9.4 nM; and `Cc1c(N2CCCC2)nc2ccc(Br)cc2c1C(=O)NCC(CCC(=O)O)c1c(Cl)ccc(Cl)c1Cl` (racemic) [Example 174, (+/−)-5-({[6-Bromo-3-methyl-2-(pyrrolidin-1-yl)quinolin-4-yl]carbonyl}amino)-4-(2,3,6-trichlorophenyl)pentanoic acid], with 11 nM.
Regarding `Cc1c(N2CCCC(F)(F)C2)nc2ccc(Br)cc2c1C(=O)NCC(CCC(=O)O)c1c(Cl)ccc(Cl)c1Cl` (racemic) [Example 177, (+/−)-5-({[6-Bromo-2-(3,3-difluoropiperidin-1-yl)-3-methylquinolin-4-yl]carbonyl}amino)-4-(2,3,6-trichlorophenyl)pentanoic acid], the IC50 worked out at 10 nM.
Then `Cc1c(N2CCCCC2)nc2ccc(Br)cc2c1C(=O)NCC(CCC(=O)O)c1c(F)cccc1OC(F)F` (racemic) [Example 182, (+/−)-5-({[6-Bromo-3-methyl-2-(piperidin-1-yl)quinolin-4-yl]carbonyl}amino)-4-[2-(difluoromethoxy)-6-fluorophenyl]pentanoic acid], with 2.9 nM.
For `CCC1CCCN(c2nc3ccc(Br)cc3c(C(=O)NCC(CCC(=O)O)c3cc(F)ccc3F)c2C)C1` (racemic) [Example 225, 5-[({6-Bromo-2-[3-ethylpiperidin-1-yl]-3-methylquinolin-4-yl}carbonyl)amino]-4-(2,5-difluorophenyl)pentanoic acid] the value was 3.2 nM.
Then `CCC1CCCN(c2nc3ccc(Br)cc3c(C(=O)NCC(CCC(=O)O)c3cc(F)ccc3F)c2C)C1` (racemic) [Example 226, (−)-5-[({6-Bromo-2-[3-ethylpiperidin-1-yl]-3-methylquinolin-4-yl}carbonyl)amino]-4-(2,5-difluorophenyl)pentanoic acid], with 1.8 nM; and `Cc1ccccc1C(CCC(=O)O)CNC(=O)c1c(C)c(N2CCCC(F)(F)C2)nc2ccc(Br)cc12` (racemic) [Example 229, (+/−)-5-({[6-Bromo-2-(3,3-difluoropiperidin-1-yl)-3-methylquinolin-4-yl]carbonyl}amino)-4-(2-methylphenyl)pentanoic acid], with 13 nM.
Consider `Cc1ccccc1C(CCC(=O)O)CNC(=O)c1c(C)c(N2CCCC2)nc2ccc(Br)cc12` (racemic) [Example 232, (+/−)-5-({[6-Bromo-3-methyl-2-(pyrrolidin-1-yl)quinolin-4-yl]carbonyl}amino)-4-(2-methylphenyl)pentanoic acid], for which the IC50 is 18 nM.
For `Cc1c(N2CCCCC2)nc2ccc(Br)cc2c1C(=O)NCC(CCC(=O)O)c1c(Cl)cccc1Cl` (racemic) [Example 241, (+/−)-5-({[6-Bromo-3-methyl-2-(piperidin-1-yl)quinolin-4-yl]carbonyl}amino)-4-(2,6-dichlorophenyl)pentanoic acid] the value was 12 nM; for `Cc1ccccc1C(CCC(=O)O)CNC(=O)c1c(C)c(N2CCCCC2)nc2ccc(Br)cc12` (racemic) [Example 242, (+/−)-5-({[6-Bromo-3-methyl-2-(piperidin-1-yl)quinolin-4-yl]carbonyl}amino)-4-(2-methylphenyl)pentanoic acid], 7.1 nM.
For `Cc1ccccc1C(CCC(=O)O)CNC(=O)c1c(C)c(N2CCCCCC2)nc2ccc(Br)cc12` (racemic) [Example 243, (+/−)-5-({[2-(Azepan-1-yl)-6-bromo-3-methylquinolin-4-yl]carbonyl}amino)-4-(2-methylphenyl)pentanoic acid] the value was 11 nM; for `Cc1c(N2CCCCC2)nc2ccc(Br)cc2c1C(=O)NCC(CCC(=O)O)c1c(F)cccc1F` (racemic) [Example 244, (+/−)-5-({[6-Bromo-3-methyl-2-(piperidin-1-yl)quinolin-4-yl]carbonyl}amino)-4-(2,6-difluorophenyl)pentanoic acid], 12 nM.
Then `Cc1c(N2CCCC2)nc2ccc(Br)cc2c1C(=O)NCC(CCC(=O)O)c1c(F)cccc1F` (racemic) [Example 247, (+/−)-5-({[6-Bromo-3-methyl-2-(pyrrolidin-1-yl)quinolin-4-yl]carbonyl}amino)-4-(2,6-difluorophenyl)pentanoic acid hydrogenformate], with 55 nM.
Regarding `Cc1c(N2CCCC(F)(F)C2)nc2ccc(Br)cc2c1C(=O)NCC(CCC(=O)O)c1c(F)cccc1F` (racemic) [Example 250, (+/−)-5-({[6-Bromo-2-(3,3-difluoropiperidin-1-yl)-3-methylquinolin-4-yl]carbonyl}amino)-4-(2,6-difluorophenyl)pentanoic acid], the IC50 worked out at 20 nM.
Then `Cc1c(N2CCCCC2)nc2ccc(Br)cc2c1C(=O)NCC(CCC(=O)O)c1cc(F)ccc1F` (racemic) [Example 255, (+/−)-5-({[6-Bromo-3-methyl-2-(piperidin-1-yl)quinolin-4-yl]carbonyl}amino)-4-(2,5-difluorophenyl)pentanoic acid], with 20 nM.
On to `Cc1c(N2CCCC2)nc2ccc(Br)cc2c1C(=O)NCC(CCC(=O)O)c1cc(F)ccc1F` (racemic) [Example 258, (+/−)-5-({[6-Bromo-3-methyl-2-(pyrrolidin-1-yl)quinolin-4-yl]carbonyl}amino)-4-(2,5-difluorophenyl)pentanoic acid], for which the IC50 came to 80 nM.
For `Cc1c(N2CCCC(F)(F)C2)nc2ccc(Br)cc2c1C(=O)NCC(CCC(=O)O)c1cc(F)ccc1F` (racemic) [Example 261, (+/−)-5-({[6-Bromo-2-(3,3-difluoropiperidin-1-yl)-3-methylquinolin-4-yl]carbonyl}amino)-4-(2,5-difluorophenyl)pentanoic acid] the value was 28 nM; for `Cc1c(N2CC=CCC2)nc2ccc(Br)cc2c1C(=O)NCC(CCC(=O)O)c1ccccc1Cl` (single isomer, unassigned) [Example 30, 5-({[6-Bromo-2-(3,6-dihydropyridin-1(2H)-yl)-3-methylquinolin-4-yl]carbonyl}amino)-4-(2-chlorophenyl)pentanoic acid], 8.7 nM; for `Cc1c(N2CC=CCC2)nc2ccc(Br)cc2c1C(=O)NCC(CCC(=O)O)c1ccccc1Cl` (single isomer, unassigned) [Example 31, 5-({[6-Bromo-2-(3,6-dihydropyridin-1(2H)-yl)-3-methylquinolin-4-yl]carbonyl}amino)-4-(2-chlorophenyl)pentanoic acid], 29 nM.
